PubChem BioAssay AID2060491 (Molecular Pharmacology Branch, DTP, NCI, 2025)

System: 857933-349-R-J2-PDC complex spheroids, viability
Assay: Anticancer human tumor 857933-349-R-J2-PDC patient-derived colon adenocarcinoma cell line growth inhibition [GQUAD]
Conditions: for IC50: curve of first compound; for viability, T/C: stronger effect = lower value
Method in brief: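 Tumor cells were grown as complex spheroids with HUVEC endothelial cells and mesenchymal stem cells as stroma. G-quadruplex stabilizers were combined with targeted agents over half-log dilutions from near the clinical Cmax, or from 10 microM.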

[1] = second compound 0.0316 µM, first compound 0.0316 µM
[2] = second compound 0.0316 µM, first compound 0.1 µM
[3] = second compound 0.0316 µM, first compound 0.316 µM
[4] = second compound 0.0316 µM, first compound 1 µM
[5] = second compound 0.0316 µM, first compound 3.16 µM
[6] = second compound 0.0316 µM, first compound 10 µM
[7] = second compound 0.1 µM, first compound 0.0316 µM
[8] = second compound 0.1 µM, first compound 0.1 µM
[9] = second compound 0.1 µM, first compound 0.316 µM
[10] = second compound 0.1 µM, first compound 1 µM
[11] = second compound 0.1 µM, first compound 3.16 µM
[12] = second compound 0.1 µM, first compound 10 µM
[13] = second compound 0.316 µM, first compound 0.0316 µM
[14] = second compound 0.316 µM, first compound 0.1 µM
[15] = second compound 0.316 µM, first compound 0.316 µM
[16] = second compound 0.316 µM, first compound 1 µM
[17] = second compound 0.316 µM, first compound 3.16 µM
[18] = second compound 0.316 µM, first compound 10 µM
[19] = second compound 1 µM, first compound 0.0316 µM
[20] = second compound 1 µM, first compound 0.1 µM
[21] = second compound 1 µM, first compound 0.316 µM
[22] = second compound 1 µM, first compound 1 µM
[23] = second compound 1 µM, first compound 3.16 µM
[24] = second compound 1 µM, first compound 10 µM
[25] = second compound 3.16 µM, first compound 0.0316 µM
[26] = second compound 3.16 µM, first compound 0.1 µM
[27] = second compound 3.16 µM, first compound 0.316 µM
[28] = second compound 3.16 µM, first compound 1 µM
[29] = second compound 3.16 µM, first compound 3.16 µM
[30] = second compound 3.16 µM, first compound 10 µM
[31] = second compound 10 µM, first compound 0.0316 µM
[32] = second compound 10 µM, first compound 0.1 µM
[33] = second compound 10 µM, first compound 0.316 µM
[34] = second compound 10 µM, first compound 1 µM
[35] = second compound 10 µM, first compound 3.16 µM
[36] = second compound 10 µM, first compound 10 µM
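Note: spheroids exposed to compounds for one week before readout.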
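Throughout, for viability, T/C: percent viability relative to vehicle DMSO wells taken as 100%.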

`CC1COCCN1c1cc(C2(O)CC3CCC(C2)O3)c2cnn(-c3ccn[nH]3)c2n1` (stereo not drawn) + Cc1[nH]c2ccc(F)cc2c1-c1nc2c3cccnc3c3ncccc3c2[nH]1 showed an IC50 (second compound 0.0316 µM) of 0.289 µM, an IC50 (second compound 0.1 µM) of 0.273 µM and an IC50 (second compound 0.316 µM) of 0.44 µM. The IC50 (second compound 1 µM) was 0.312 µM, the IC50 (second compound 3.16 µM) was 0.699 µM and the IC50 (second compound 10 µM) was 0.267 µM. The viability, T/C [1] was 76.9%, the viability, T/C [2] was 64.5% and the viability, T/C [3] was 49.6%. It also gave a viability, T/C [4] of 41.2%, a viability, T/C [5] of 47.2% and a viability, T/C [6] of 42.5%. For the same compound, the viability, T/C [7] was 69.5%, the viability, T/C [8] was 61.1% and the viability, T/C [9] was 44.6%. It also gave a viability, T/C [10] of 47.3%, a viability, T/C [11] of 50.3% and a viability, T/C [12] of 51.4%. For the same compound, the viability, T/C [13] was 67.8%, the viability, T/C [14] was 65.5% and the viability, T/C [15] was 52.7%. The viability, T/C [16] was 42.3%, the viability, T/C [17] was 45.8% and the viability, T/C [18] was 42.9%. For the same compound, the viability, T/C [19] was 58.2%, the viability, T/C [20] was 59.8% and the viability, T/C [21] was 46.5%. It also gave a viability, T/C [22] of 44.6%, a viability, T/C [23] of 46.4% and a viability, T/C [24] of 47.2%. It also gave a viability, T/C [25] of 64.9%, a viability, T/C [26] of 59.6% and a viability, T/C [27] of 52.4%. The viability, T/C [28] was 46.2%, the viability, T/C [29] was 48.4% and the viability, T/C [30] was 45.5%. The viability, T/C [31] was 77.4%, the viability, T/C [32] was 61.2% and the viability, T/C [33] was 49%. The viability, T/C [34] was 42.4%, the viability, T/C [35] was 42% and the viability, T/C [36] was 46.7%.

`CC1COCCN1c1cc(C2(S(C)(=N)=O)CC2)nc(-c2ccnc3[nH]ccc23)n1` (stereo not drawn) + Cc1[nH]c2ccc(F)cc2c1-c1nc2c3cccnc3c3ncccc3c2[nH]1 gave an IC50 (second compound 0.0316 µM) of 6.7 µM, an IC50 (second compound 0.1 µM) of 6.02 µM and an IC50 (second compound 0.316 µM) of 6.09 µM. The IC50 (second compound 1 µM) was 7.1 µM, the IC50 (second compound 3.16 µM) was 7.16 µM and the IC50 (second compound 10 µM) was 6.45 µM. The viability, T/C [1] was 101%, the viability, T/C [2] was 103% and the viability, T/C [3] was 88.5%. For the same compound, the viability, T/C [4] was 75.4%, the viability, T/C [5] was 59.6% and the viability, T/C [6] was 45%. It also gave a viability, T/C [7] of 99.9%, a viability, T/C [8] of 101% and a viability, T/C [9] of 93.3%. The viability, T/C [10] was 80.9%, the viability, T/C [11] was 58.8% and the viability, T/C [12] was 43%. For the same compound, the viability, T/C [13] was 106%, the viability, T/C [14] was 108% and the viability, T/C [15] was 90.2%. The viability, T/C [16] was 79.5%, the viability, T/C [17] was 58.9% and the viability, T/C [18] was 43.1%. The viability, T/C [19] was 103%, the viability, T/C [20] was 98.2% and the viability, T/C [21] was 91.9%. For the same compound, the viability, T/C [22] was 83.6%, the viability, T/C [23] was 59.7% and the viability, T/C [24] was 45.7%. It also gave a viability, T/C [25] of 108%, a viability, T/C [26] of 96.3% and a viability, T/C [27] of 81.2%. It also gave a viability, T/C [28] of 86.3%, a viability, T/C [29] of 60.4% and a viability, T/C [30] of 43.6%. It also gave a viability, T/C [31] of 104%, a viability, T/C [32] of 98.5% and a viability, T/C [33] of 92.5%. It also gave a viability, T/C [34] of 90.9%, a viability, T/C [35] of 62.3% and a viability, T/C [36] of 42.1%.

With `COc1ccc([C@@H](O)c2cc(-c3ncnc4cc(N5CCOCC5)ccc34)c(F)cc2Cl)nn1` + Cc1[nH]c2ccc(F)cc2c1-c1nc2c3cccnc3c3ncccc3c2[nH]1 the IC50 (second compound 0.0316 µM) was greater than 10 µM, the IC50 (second compound 0.1 µM) was 8.66 µM and the IC50 (second compound 0.316 µM) was greater than 10 µM. It also gave an IC50 (second compound 1 µM) greater than 10 µM, an IC50 (second compound 3.16 µM) greater than 10 µM and an IC50 (second compound 10 µM) greater than 10 µM. The viability, T/C [1] was 124%, the viability, T/C [2] was 98.5% and the viability, T/C [3] was 99.8%. It also gave a viability, T/C [4] of 82.2%, a viability, T/C [5] of 69.9% and a viability, T/C [6] of 51.6%. For the same compound, the viability, T/C [7] was 107%, the viability, T/C [8] was 108% and the viability, T/C [9] was 93.5%. It also gave a viability, T/C [10] of 87.8%, a viability, T/C [11] of 64.2% and a viability, T/C [12] of 48.1%. For the same compound, the viability, T/C [13] was 108%, the viability, T/C [14] was 91.1% and the viability, T/C [15] was 99.1%. It also gave a viability, T/C [16] of 90.8%, a viability, T/C [17] of 71.6% and a viability, T/C [18] of 58.1%. For the same compound, the viability, T/C [19] was 102%, the viability, T/C [20] was 98.8% and the viability, T/C [21] was 96.3%. The viability, T/C [22] was 99.4%, the viability, T/C [23] was 71.8% and the viability, T/C [24] was 52.7%. The viability, T/C [25] was 113%, the viability, T/C [26] was 96.5% and the viability, T/C [27] was 95.1%. It also gave a viability, T/C [28] of 94%, a viability, T/C [29] of 66.1% and a viability, T/C [30] of 52.2%. It also gave a viability, T/C [31] of 105%, a viability, T/C [32] of 94.1% and a viability, T/C [33] of 91.6%. The viability, T/C [34] was 79.9%, the viability, T/C [35] was 68.6% and the viability, T/C [36] was 51.9%.

`Cc1cccc(N(C)C(=O)C2C(O)CCN2c2nc(C)cc(C(F)(F)F)c2C#N)c1` (stereo not drawn) + Cc1[nH]c2ccc(F)cc2c1-c1nc2c3cccnc3c3ncccc3c2[nH]1 was tested, and the IC50 (second compound 0.0316 µM) was greater than 10 µM, the IC50 (second compound 0.1 µM) was greater than 10 µM and the IC50 (second compound 0.316 µM) was greater than 10 µM. For the same compound, the IC50 (second compound 1 µM) was greater than 10 µM, the IC50 (second compound 3.16 µM) was greater than 10 µM and the IC50 (second compound 10 µM) was greater than 10 µM. The viability, T/C [1] was 101%, the viability, T/C [2] was 99.1% and the viability, T/C [3] was 91.6%. For the same compound, the viability, T/C [4] was 88.2%, the viability, T/C [5] was 98.3% and the viability, T/C [6] was 92%. It also gave a viability, T/C [7] of 95.2%, a viability, T/C [8] of 98.4% and a viability, T/C [9] of 98.8%. It also gave a viability, T/C [10] of 97.9%, a viability, T/C [11] of 102% and a viability, T/C [12] of 96.7%. The viability, T/C [13] was 101%, the viability, T/C [14] was 104% and the viability, T/C [15] was 106%. The viability, T/C [16] was 102%, the viability, T/C [17] was 101% and the viability, T/C [18] was 110%. It also gave a viability, T/C [19] of 94.9%, a viability, T/C [20] of 101% and a viability, T/C [21] of 102%. It also gave a viability, T/C [22] of 103%, a viability, T/C [23] of 110% and a viability, T/C [24] of 94.7%. The viability, T/C [25] was 94.6%, the viability, T/C [26] was 97.4% and the viability, T/C [27] was 111%. It also gave a viability, T/C [28] of 100%, a viability, T/C [29] of 98.5% and a viability, T/C [30] of 99.7%. It also gave a viability, T/C [31] of 96.1%, a viability, T/C [32] of 101% and a viability, T/C [33] of 93%. It also gave a viability, T/C [34] of 95%, a viability, T/C [35] of 97.5% and a viability, T/C [36] of 88.3%.
